Values quoted from earlier work, collected in patent EP4092126A1, “A METHOD OF ENZYMATIC REDUCTION OF THE OXIDIZED NICOTINAMIDE ADENINE DINUCLEOTIDE AND CARBOXYLIC ACIDS” (priority 2021, dated 2022).
Read-outs that look alike come from different tables or passages of the source.

How the values were obtained:
[1] = target: [NiFe] dehydrogenase from Ralstonia eutropha (Cupriavidus necator, UniProt P22317+P22320)
[2] = target: AOR enzyme from Thermococcus strain ES-1; details: reducing acetic acid to acetaldehyde with reduced methyl viologen
[3] = system: tungsten aldehyde oxidoreductase (AOR) from A. aromaticum; details: 1 mM benzaldehyde, re-oxidized with NAD+, pH 8.0, 28°C, anaerobic conditions
[4] = system: [NiFe] dehydrogenase from Ralstonia eutropha; details: same Km expressed as per cent H2
AOR = target: T1, AOR (Aromatoleum aromaticum, UniProt Q5P142+Q5P143); details: 1 mM benzaldehyde, pH 8.0, 28°C, anaerobic; read-out: Km versus NAD^+
T1 sequence (Q5P143 1-616): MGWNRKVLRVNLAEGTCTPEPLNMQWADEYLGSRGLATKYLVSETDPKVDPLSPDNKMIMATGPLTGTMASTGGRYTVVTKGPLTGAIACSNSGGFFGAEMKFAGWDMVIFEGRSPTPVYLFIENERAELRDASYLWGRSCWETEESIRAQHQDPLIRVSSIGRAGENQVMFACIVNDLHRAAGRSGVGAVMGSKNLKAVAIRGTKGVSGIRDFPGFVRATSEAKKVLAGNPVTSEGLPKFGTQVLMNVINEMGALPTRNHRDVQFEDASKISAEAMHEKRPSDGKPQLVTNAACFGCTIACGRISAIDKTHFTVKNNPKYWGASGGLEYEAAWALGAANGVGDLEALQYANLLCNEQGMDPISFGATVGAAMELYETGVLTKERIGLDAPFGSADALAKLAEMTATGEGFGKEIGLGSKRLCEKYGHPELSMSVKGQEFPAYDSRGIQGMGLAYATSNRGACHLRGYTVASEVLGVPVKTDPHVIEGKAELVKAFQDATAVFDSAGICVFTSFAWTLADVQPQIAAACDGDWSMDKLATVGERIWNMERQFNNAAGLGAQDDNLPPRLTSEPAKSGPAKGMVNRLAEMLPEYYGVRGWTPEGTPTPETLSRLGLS
T1 sequence (Q5P142 1-424): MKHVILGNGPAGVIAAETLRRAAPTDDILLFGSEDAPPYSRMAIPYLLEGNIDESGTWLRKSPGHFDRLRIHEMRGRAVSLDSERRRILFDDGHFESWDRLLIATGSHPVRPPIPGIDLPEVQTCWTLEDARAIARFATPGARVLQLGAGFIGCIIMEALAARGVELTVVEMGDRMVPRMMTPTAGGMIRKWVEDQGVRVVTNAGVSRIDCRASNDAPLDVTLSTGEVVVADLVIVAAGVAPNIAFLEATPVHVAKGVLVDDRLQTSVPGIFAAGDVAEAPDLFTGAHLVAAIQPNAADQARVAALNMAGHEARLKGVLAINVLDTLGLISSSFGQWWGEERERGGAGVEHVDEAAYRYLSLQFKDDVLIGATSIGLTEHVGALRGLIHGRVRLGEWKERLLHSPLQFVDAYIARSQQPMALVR
T1 sequence (Q5P144 1-158 partner): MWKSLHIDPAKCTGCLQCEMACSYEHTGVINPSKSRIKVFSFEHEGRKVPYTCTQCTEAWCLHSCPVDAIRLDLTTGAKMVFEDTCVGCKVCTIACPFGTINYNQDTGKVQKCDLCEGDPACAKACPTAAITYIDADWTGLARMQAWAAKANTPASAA

[5] = target: T2, phosphine dehydrogenase (PTDH) (Stutzerimonas stutzeri, UniProt O69054); details: read-out: Km (NAD^+)
T2 sequence (O69054 1-336): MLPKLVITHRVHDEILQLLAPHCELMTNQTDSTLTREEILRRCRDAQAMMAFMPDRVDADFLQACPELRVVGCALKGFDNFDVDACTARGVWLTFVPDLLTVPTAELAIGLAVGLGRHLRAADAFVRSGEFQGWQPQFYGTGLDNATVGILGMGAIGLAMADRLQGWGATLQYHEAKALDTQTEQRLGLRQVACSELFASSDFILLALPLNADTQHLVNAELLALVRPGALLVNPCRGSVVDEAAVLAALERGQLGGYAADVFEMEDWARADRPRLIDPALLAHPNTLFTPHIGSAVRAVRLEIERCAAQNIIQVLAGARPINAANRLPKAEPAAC

Sequence of [NiFe] dehydrogenase from Ralstonia eutropha (Cupriavidus necator, UniProt P22317+P22320) (P22318 whole entry): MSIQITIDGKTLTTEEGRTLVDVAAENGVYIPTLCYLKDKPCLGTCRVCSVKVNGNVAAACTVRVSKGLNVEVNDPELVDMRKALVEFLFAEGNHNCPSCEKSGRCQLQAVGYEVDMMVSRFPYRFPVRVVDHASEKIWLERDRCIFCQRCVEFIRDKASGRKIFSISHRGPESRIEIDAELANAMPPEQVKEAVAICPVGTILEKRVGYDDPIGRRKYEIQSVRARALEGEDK
Sequence of [NiFe] dehydrogenase from Ralstonia eutropha (Cupriavidus necator, UniProt P22317+P22320) (P22320 1-464): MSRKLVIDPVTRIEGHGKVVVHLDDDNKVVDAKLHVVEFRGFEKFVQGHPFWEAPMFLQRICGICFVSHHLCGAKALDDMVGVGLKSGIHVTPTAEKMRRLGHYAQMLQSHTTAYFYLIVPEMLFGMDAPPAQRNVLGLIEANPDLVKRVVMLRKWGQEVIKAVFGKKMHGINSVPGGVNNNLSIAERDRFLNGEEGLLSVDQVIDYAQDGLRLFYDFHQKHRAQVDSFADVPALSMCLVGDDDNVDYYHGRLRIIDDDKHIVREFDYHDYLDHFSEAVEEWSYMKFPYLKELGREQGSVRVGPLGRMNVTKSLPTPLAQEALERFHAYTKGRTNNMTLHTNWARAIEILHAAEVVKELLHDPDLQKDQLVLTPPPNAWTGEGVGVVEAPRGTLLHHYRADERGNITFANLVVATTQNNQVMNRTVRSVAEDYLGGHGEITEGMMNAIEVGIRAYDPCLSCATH
Sequence of [NiFe] dehydrogenase from Ralstonia eutropha (Cupriavidus necator, UniProt P22317+P22320) (P22319 whole entry, further chain): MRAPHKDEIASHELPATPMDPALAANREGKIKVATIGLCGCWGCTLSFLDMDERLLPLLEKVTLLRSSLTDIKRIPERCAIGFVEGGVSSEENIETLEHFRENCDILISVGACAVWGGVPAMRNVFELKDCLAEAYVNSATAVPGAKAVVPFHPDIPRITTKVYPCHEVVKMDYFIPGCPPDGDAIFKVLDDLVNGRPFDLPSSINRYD
Sequence of [NiFe] dehydrogenase from Ralstonia eutropha (Cupriavidus necator, UniProt P22317+P22320) (P22317 whole entry): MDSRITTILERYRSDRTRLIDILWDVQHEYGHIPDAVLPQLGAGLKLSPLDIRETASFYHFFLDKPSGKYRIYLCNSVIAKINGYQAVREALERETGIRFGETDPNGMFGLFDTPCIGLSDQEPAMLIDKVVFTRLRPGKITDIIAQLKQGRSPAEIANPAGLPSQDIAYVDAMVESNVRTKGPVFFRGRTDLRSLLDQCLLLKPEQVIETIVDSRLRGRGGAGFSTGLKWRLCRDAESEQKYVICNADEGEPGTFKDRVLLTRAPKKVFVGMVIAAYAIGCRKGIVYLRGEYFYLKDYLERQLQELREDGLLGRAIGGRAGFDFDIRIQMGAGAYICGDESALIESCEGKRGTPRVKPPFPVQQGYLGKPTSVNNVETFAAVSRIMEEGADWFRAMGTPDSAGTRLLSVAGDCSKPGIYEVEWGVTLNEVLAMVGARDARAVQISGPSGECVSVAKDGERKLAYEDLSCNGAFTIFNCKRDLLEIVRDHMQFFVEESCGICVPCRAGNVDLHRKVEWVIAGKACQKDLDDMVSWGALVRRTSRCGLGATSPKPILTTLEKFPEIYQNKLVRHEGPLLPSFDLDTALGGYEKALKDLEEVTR

[HH] [hydrogen]
Km ([1]; 1.4-5% H2, read-out: Km (hydrogen)): 11 to 37 µM | Ki ([1]; hyperbaric conditions, read-out: Ki (inhibition by H2)): 1460 µM

CC(=O)O [acetic acid]
kinetic rate constant (kcat) [2]: 1.6 turnovers of the catalyzed reaction per second

NC(=O)c1ccc[n+]([C@@H]2O[C@H](COP(=O)([O-])OP(=O)(O)OC[C@H]3O[C@@H](n4cnc5c(N)ncnc54)[C@H](O)[C@@H]3O)[C@@H](O)[C@H]2O)c1 [NAD+, nicotinamide adenine dinucleotide]
maximum observed reaction rate, Vmax [3]: 12.5 mM/min/mg

hydrogen [H2]
Km (hydrogen), as H2 content [4]: 1.4-5 % H2

NC(=O)c1ccc[n+]([C@@H]2O[C@H](COP(=O)([O-])OP(=O)(O)OC[C@H]3O[C@@H](n4cnc5c(N)ncnc54)[C@H](O)[C@@H]3O)[C@@H](O)[C@H]2O)c1 [NAD^+, nicotinamide adenine dinucleotide]
Km (AOR): 63 µM | Km [5]: 53 µM | Km ([1]; read-out: Km (NAD^+)): 560 µM
